Results on five compounds are retold here after PMC11345841, “Exploring 2-Sulfonylpyrimidine Warheads as Acrylamide Surrogates for Targeted Covalent Inhibition: A BTK Story” (Journal of Medicinal Chemistry, 2024).

The structures appear in SMILES notation. Read-outs that look alike come from different tables or passages of the source.

The inhibition is the share of the control response that was lost under treatment.

Holding throughout (test): KINOMEscan ScanTK
Format in all cases: binding

Assay [1] concerns the target T1, ABL2 (Homo sapiens, UniProt P42684).
T1 construct: purchased Eurofins DiscoverX KINOMEscan (scanTK)

The target of assay [2] is T2, EPHA6 (Homo sapiens, UniProt Q9UF33).
T2 construct: purchased Eurofins DiscoverX KINOMEscan (scanTK)
T2 sequence (Q9UF33 23-1036): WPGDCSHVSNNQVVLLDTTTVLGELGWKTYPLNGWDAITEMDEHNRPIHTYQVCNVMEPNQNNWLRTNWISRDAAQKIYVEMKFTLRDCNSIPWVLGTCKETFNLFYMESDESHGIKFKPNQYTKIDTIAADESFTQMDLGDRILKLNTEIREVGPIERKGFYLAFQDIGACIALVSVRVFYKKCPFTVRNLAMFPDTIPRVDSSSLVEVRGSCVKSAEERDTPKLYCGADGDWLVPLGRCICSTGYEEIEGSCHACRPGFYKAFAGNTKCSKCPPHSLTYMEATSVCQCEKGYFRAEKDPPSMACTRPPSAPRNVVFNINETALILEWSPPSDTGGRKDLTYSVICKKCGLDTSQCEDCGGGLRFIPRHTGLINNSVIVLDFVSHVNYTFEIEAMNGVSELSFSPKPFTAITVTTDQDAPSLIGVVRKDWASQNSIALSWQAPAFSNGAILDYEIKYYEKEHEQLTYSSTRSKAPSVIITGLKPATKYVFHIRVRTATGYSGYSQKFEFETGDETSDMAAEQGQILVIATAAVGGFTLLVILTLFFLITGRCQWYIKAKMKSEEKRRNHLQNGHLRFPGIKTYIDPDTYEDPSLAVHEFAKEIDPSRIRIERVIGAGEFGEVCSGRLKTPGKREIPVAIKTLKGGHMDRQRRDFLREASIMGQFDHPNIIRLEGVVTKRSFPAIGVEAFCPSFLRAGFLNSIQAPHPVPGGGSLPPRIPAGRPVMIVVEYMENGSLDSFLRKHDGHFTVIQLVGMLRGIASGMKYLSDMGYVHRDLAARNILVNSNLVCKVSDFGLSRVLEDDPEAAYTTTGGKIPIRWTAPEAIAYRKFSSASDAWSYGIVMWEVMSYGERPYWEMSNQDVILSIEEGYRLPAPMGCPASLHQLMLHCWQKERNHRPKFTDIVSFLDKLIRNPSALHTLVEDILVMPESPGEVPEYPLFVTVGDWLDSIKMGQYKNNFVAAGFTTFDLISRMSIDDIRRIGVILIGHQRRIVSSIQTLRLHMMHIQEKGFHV

Assay [3] has as its target T3, SRMS (Homo sapiens, UniProt Q9H3Y6).
T3 construct: purchased Eurofins DiscoverX KINOMEscan (scanTK)
The conditions noted are these: for remaining binding at 1 µM: SRMS.

Assay [4] deals with T4, TNK1 (Homo sapiens, UniProt Q13470).
T4 construct: purchased Eurofins DiscoverX KINOMEscan (scanTK)
T4 sequence (Q13470 1-666): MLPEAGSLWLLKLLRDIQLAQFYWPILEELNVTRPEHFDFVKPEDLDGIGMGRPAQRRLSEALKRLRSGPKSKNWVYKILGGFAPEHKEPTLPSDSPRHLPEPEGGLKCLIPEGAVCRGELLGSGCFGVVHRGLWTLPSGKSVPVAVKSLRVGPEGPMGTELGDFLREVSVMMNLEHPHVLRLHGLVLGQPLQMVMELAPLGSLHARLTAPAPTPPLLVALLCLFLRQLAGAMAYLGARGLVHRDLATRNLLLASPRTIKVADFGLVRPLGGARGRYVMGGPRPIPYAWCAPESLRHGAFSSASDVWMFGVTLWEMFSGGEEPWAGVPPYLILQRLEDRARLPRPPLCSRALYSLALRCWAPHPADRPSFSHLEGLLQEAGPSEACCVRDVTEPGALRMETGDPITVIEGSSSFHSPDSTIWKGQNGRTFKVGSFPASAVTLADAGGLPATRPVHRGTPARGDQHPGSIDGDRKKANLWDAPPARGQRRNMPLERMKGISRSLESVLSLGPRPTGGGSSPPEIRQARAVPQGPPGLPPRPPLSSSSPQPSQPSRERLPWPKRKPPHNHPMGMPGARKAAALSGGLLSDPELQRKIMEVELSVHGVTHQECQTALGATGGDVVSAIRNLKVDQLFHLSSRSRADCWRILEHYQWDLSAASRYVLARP

For assay [5], the target named is T5, EGFR(G719S) (Homo sapiens, UniProt P00533, G719S).
T5 construct: purchased Eurofins DiscoverX KINOMEscan (scanTK)
T5 sequence (P00533 25-1210 G719S): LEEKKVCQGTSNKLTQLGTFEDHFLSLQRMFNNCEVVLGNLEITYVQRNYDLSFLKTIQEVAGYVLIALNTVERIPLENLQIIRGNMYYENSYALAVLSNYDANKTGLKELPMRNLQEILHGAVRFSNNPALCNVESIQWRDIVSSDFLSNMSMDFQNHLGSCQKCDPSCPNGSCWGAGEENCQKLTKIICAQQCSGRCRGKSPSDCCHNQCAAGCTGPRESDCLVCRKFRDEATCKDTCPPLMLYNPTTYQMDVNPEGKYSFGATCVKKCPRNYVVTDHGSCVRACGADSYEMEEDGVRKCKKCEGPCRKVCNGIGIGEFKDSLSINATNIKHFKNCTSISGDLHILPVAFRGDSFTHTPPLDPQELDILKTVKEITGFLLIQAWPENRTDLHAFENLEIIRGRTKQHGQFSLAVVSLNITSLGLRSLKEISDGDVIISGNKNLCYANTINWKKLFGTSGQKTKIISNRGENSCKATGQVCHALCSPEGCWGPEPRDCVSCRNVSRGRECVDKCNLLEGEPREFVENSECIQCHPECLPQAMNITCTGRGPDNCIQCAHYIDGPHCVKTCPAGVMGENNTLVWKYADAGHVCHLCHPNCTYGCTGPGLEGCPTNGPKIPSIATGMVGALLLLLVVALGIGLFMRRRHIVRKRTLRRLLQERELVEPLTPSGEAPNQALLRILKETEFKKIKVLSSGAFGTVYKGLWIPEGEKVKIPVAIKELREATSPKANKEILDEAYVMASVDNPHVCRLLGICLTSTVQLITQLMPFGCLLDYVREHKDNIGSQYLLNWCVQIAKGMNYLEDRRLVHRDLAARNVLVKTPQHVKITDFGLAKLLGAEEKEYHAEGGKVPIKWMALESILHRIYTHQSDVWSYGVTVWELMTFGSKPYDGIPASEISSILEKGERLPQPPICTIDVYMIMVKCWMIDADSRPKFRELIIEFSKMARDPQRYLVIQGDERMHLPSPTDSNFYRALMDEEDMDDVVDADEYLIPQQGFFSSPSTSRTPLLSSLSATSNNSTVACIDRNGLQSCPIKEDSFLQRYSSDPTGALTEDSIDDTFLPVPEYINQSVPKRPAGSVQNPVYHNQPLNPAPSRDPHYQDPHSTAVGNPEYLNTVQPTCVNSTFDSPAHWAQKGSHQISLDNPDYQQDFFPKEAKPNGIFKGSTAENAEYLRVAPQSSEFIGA

Assay [6] deals with T6, FLT3-autoinhibited (Homo sapiens, UniProt P36888).
T6 construct: purchased Eurofins DiscoverX KINOMEscan (scanTK)
T6 sequence (P36888 27-993): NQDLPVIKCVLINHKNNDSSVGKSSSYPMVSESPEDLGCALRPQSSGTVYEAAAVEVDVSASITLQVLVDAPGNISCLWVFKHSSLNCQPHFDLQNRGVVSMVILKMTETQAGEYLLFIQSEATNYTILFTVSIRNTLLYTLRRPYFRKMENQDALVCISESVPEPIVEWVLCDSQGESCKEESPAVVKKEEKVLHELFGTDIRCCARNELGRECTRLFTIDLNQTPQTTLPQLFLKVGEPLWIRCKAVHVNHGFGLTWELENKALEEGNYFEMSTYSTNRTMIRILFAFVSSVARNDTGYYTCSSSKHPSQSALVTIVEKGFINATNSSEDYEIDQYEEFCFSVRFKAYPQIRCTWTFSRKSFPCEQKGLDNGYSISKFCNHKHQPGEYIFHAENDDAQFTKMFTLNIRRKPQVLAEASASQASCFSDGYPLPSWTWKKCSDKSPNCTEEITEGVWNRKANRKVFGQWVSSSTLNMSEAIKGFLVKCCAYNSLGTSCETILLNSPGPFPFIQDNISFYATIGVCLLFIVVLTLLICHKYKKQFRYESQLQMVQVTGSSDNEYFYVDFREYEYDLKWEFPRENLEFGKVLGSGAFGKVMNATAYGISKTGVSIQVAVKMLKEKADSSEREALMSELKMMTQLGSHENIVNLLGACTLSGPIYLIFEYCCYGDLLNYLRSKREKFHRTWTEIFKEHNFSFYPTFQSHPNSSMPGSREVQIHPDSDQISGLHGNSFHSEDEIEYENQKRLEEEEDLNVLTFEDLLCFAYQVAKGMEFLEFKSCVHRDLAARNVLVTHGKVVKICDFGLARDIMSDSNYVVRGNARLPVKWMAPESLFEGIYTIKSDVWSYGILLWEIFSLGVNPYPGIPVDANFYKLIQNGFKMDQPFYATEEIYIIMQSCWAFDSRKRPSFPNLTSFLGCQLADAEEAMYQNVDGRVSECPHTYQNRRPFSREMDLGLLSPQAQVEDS

T3 sequence (Q9H3Y6 whole entry): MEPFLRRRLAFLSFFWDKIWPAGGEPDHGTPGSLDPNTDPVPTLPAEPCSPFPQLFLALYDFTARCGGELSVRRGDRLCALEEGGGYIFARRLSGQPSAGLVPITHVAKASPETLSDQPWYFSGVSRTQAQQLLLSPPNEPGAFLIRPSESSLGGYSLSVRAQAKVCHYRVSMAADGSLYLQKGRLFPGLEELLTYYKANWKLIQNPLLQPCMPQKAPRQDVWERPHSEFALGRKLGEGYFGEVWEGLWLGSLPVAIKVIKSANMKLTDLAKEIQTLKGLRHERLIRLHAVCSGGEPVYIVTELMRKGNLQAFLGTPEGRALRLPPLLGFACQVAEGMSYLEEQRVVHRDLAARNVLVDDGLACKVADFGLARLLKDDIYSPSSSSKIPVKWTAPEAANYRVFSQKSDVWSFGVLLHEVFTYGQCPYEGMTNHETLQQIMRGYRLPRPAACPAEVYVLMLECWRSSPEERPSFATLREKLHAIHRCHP
T1 sequence (P42684 whole entry): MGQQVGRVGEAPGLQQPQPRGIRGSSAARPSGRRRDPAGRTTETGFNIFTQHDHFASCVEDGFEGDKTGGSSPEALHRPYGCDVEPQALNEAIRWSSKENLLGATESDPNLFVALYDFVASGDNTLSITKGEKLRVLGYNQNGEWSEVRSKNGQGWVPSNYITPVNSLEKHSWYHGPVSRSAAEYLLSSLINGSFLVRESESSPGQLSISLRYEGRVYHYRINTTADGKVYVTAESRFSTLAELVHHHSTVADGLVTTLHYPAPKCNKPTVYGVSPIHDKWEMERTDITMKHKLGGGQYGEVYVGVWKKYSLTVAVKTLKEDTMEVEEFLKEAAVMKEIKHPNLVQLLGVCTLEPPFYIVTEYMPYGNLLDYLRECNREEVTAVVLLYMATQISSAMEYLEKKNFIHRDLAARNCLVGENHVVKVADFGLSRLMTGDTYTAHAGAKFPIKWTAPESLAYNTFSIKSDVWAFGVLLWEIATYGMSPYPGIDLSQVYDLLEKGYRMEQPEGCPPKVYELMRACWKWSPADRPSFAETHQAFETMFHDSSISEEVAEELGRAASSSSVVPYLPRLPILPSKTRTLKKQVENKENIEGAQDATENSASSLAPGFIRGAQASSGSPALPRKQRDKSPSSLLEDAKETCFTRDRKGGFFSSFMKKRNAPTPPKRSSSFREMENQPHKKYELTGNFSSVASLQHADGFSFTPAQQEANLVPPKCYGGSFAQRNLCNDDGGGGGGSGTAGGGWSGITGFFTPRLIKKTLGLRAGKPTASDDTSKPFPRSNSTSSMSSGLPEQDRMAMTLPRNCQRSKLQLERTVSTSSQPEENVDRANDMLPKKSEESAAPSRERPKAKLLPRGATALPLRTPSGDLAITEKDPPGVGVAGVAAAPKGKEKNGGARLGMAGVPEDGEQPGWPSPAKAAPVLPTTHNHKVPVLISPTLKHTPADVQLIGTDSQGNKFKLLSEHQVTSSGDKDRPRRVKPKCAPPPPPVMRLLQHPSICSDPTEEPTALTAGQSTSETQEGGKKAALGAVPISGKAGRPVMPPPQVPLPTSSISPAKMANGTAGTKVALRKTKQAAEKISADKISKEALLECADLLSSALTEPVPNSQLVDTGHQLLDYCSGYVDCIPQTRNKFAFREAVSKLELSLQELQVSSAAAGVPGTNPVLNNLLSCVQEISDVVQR

On to `C=CC(=O)N1CCC[C@@H](n2nc(-c3ccc(Oc4ccccc4)cc3)c3c(N)ncnc32)C1` [Compound 1g, Ibrutinib, reference compound], for which the remaining binding at 1 µM in assay [1] (@1000nM, read-out: %Control) turned out to be 41%; in assay [1] (read-out: %Control @1000nM), 41%; in assay [2] (@1000nM, read-out: %Control) it was 77%; in assay [2] (read-out: %Control @1000nM) it was 77%; in assay [3] (@1000nM, read-out: %Control), 0%; in assay [3] (read-out: %Control @1000nM), 0%. The remaining binding at 1 µM in assay [4] (@1000nM, read-out: %Control) worked out at 93%; in assay [4] (read-out: %Control @1000nM) it was 93%. Further, the inhibition at 1 µM in assay [3] (read-out: % inhibition, SRMS) was more than 99%.
`Cc1cnc(S(C)(=O)=O)nc1N1CCCC(n2nc(-c3ccc(Oc4ccccc4)cc3)c3c(N)ncnc32)C1` (stereo not shown) [Compound 8a, 1-(1-(5-Methyl-2-(methylsulfonyl)pyrimidin-4-yl)piperidin-3-yl)-3-(4-phenoxyphenyl)-1H-pyrazolo[3,4-d]pyrimidin-4-amine] yielded a difference in %Control from reference compound Ib at 1 µM in assay [1] (@1000nM) of 29%. The remaining binding at 1 µM in assay [1] (@1000nM, read-out: %Control) was 70%; in assay [1] (read-out: %Control @1000nM), 70%; in assay [5] (@1000nM, read-out: %Control), 96%; in assay [5] (read-out: %Control @1000nM), 96%; in assay [2] (@1000nM, read-out: %Control), 100%; in assay [2] (read-out: %Control @1000nM) it was 100%. Also, the remaining binding at 1 µM in assay [6] (@1000nM, read-out: %Control) came out at 79%; in assay [6] (read-out: %Control @1000nM), 79%; in assay [3] (@1000nM, read-out: %Control), 16%; in assay [3] (read-out: %Control @1000nM), 16%; in assay [4] (@1000nM, read-out: %Control), 91%; in assay [4] (read-out: %Control @1000nM) it was 91%. The difference in %Control from compound Ib at 1 µM in assay [5] (@1000nM) amounted to 95.4%; in assay [2] (@1000nM), 23%. Further, in assay [6] (@1000nM), the difference in %Control vs compound Ib at 1 µM was -18%.
The compound `COC(=O)c1cnc(S(C)(=O)=O)nc1N1CCCC(n2nc(-c3ccc(Oc4ccccc4)cc3)c3c(N)ncnc32)C1` (stereo not shown) [Compound 8b, Methyl 4-(3-(4-Amino-3-(4-phenoxyphenyl)-1H-pyrazolo[3,4-d]pyrimidin-1-yl)piperidin-1-yl)-2-(methylsulfonyl)pyrimidine-5-carboxylate] registered a difference in %Control from reference compound Ib at 1 µM in assay [1] (@1000nM) of 38%. Besides, the remaining binding at 1 µM in assay [1] (@1000nM, read-out: %Control) was 79%; in assay [1] (read-out: %Control @1000nM), 79%; in assay [5] (@1000nM, read-out: %Control), 85%; in assay [5] (read-out: %Control @1000nM), 85%; in assay [2] (@1000nM, read-out: %Control), 92%; in assay [2] (read-out: %Control @1000nM) it was 92%. The remaining binding at 1 µM came out at 90% in assay [6] (@1000nM, read-out: %Control); 90% in assay [6] (read-out: %Control @1000nM); 27% in assay [3] (@1000nM, read-out: %Control); 27% in assay [3] (read-out: %Control @1000nM); 88% in assay [4] (@1000nM, read-out: %Control); 88% in assay [4] (read-out: %Control @1000nM). Moreover, the difference in %Control from compound Ib at 1 µM was determined as 84.4% in assay [5] (@1000nM) and 15% in assay [2] (@1000nM). In assay [6] (@1000nM), the difference in %Control vs compound Ib at 1 µM is -7%.
Consider `CCOC(=O)c1cnc(S(C)(=O)=O)nc1N1CCC[C@@H](n2nc(-c3ccc(Oc4ccccc4)cc3)c3c(N)ncnc32)C1` [Compound 8c, Ethyl (R)-4-(3-(4-Amino-3-(4-phenoxyphenyl)-1H-pyrazolo[3,4-d]pyrimidin-1-yl)piperidin-1-yl)-2-(methylsulfonyl)pyrimidine-5-carboxylate], for which the difference in %Control from reference compound Ib at 1 µM in assay [1] (@1000nM) came to 57%. Further, the remaining binding at 1 µM in assay [1] (@1000nM, read-out: %Control) was found to be 98%; in assay [1] (read-out: %Control @1000nM), 98%; in assay [5] (@1000nM, read-out: %Control), 94%; in assay [5] (read-out: %Control @1000nM), 94%; in assay [2] (@1000nM, read-out: %Control), 87%; in assay [2] (read-out: %Control @1000nM) it was 87%. Moreover, the remaining binding at 1 µM in assay [6] (@1000nM, read-out: %Control) turned out to be 100%; in assay [6] (read-out: %Control @1000nM), 100%; in assay [3] (@1000nM, read-out: %Control), 32%; in assay [3] (read-out: %Control @1000nM), 32%; in assay [4] (@1000nM, read-out: %Control), 81%; in assay [4] (read-out: %Control @1000nM), 81%. Moreover, the results for the difference in %Control from compound Ib at 1 µM in assay [5] (@1000nM) and in assay [2] (@1000nM) were 93.4% and 10%, respectively. The difference in %Control vs compound Ib at 1 µM in assay [6] (@1000nM) is 3%.
For `CNC(=O)c1cnc(S(C)(=O)=O)nc1N1CCCC(n2nc(-c3ccc(Oc4ccccc4)cc3)c3c(N)ncnc32)C1` (stereo not shown) [Compound 8d, 4-(3-(4-Amino-3-(4-phenoxyphenyl)-1H-pyrazolo[3,4-d]pyrimidin-1-yl)piperidin-1-yl)-N-methyl-2-(methylsulfonyl)pyrimidine-5-carboxamide], in assay [1] (@1000nM), the difference in %Control from reference compound Ib at 1 µM was found to be 48%. Also, the remaining binding at 1 µM in assay [1] (@1000nM, read-out: %Control) amounted to 89%; in assay [1] (read-out: %Control @1000nM), 89%; in assay [5] (@1000nM, read-out: %Control) it was 78%; in assay [5] (read-out: %Control @1000nM), 78%; in assay [2] (@1000nM, read-out: %Control), 97%; in assay [2] (read-out: %Control @1000nM), 97%. The remaining binding at 1 µM in assay [6] (@1000nM, read-out: %Control) came to 100%; in assay [6] (read-out: %Control @1000nM), 100%; in assay [3] (@1000nM, read-out: %Control), 6.5%; in assay [3] (read-out: %Control @1000nM), 6.5%; in assay [4] (@1000nM, read-out: %Control), 97%; in assay [4] (read-out: %Control @1000nM), 97%. Moreover, the values for the difference in %Control from compound Ib at 1 µM in assay [5] (@1000nM) and in assay [2] (@1000nM) were 77.4% and 20%, respectively. The difference in %Control vs compound Ib at 1 µM in assay [6] (@1000nM) amounted to 3%.
